Test [1] deals with HepG2. As to the kind of experiment: Cytotoxicity against Homo sapiens (human) HepG2 cells after 24 hr by MTT assay. In kind it is functional, cell-based. To be noted: HepG2, 24 h.
Test [2] deals with HepG2. Description: Cytotoxicity against Homo sapiens (human) HepG2 cells assessed as cell survival at 0.0001 g/l after 24 hr by MTT assay (reference value: 78.07 +/- 1.89 to 95.31 +/- 3.09%). It counts as functional. The note with it: HepG2, 24 h, read-out: Survival.
The subject of test [3] is HepG2. Description: Cytotoxicity against Homo sapiens (human) HepG2 cells assessed as cell survival at 0.1 g/l after 24 hr by MTT assay (reference value: 78.07 +/- 1.89 to 95.31 +/- 3.09%). It counts as functional. To be noted: HepG2, 24 h, read-out: Survival.
Test [4] has as its system HepG2. Description: Cytotoxicity against Homo sapiens (human) HepG2 cells assessed as cell survival at 0.001 g/l after 24 hr by MTT assay (reference value: 78.07 +/- 1.89 to 95.31 +/- 3.09%). It counts as functional. The note with it: HepG2, 24 h, read-out: Survival.
The subject of test [5] is HepG2. Description: Cytotoxicity against Homo sapiens (human) HepG2 cells assessed as cell survival at 0.01 g/l after 24 hr by MTT assay (reference value: 78.07 +/- 1.89 to 95.31 +/- 3.09%). To be noted: HepG2, 24 h, read-out: Survival. In kind it is functional. (In general: Tetrazolium assays rely on reduction of a dye to a coloured formazan, in cell work by metabolically active cells.)

In brackets after ≈: the same amount, converted by molar mass.

Usually IC50 stands for the midpoint of a concentration-inhibition curve. As for `Cc1ccc(OCc2nn(CN(c3ccccc3)c3ccccc3)c(=S)n2/N=C/c2c[nH]nc2-c2ccc(Cl)cc2)cc1`, in the test with HepG2 [1], the IC50 came out at 97 µg/mL (≈ 160 µM).

`Cc1ccccc1OCc1n[nH]c(=S)n1/N=C/c1c[nH]nc1-c1ccc(F)cc1`: the IC50 in the test on HepG2 [1] is 48 µg/mL (≈ 118 µM).

In the test on HepG2 [1], `Fc1ccc(-c2n[nH]cc2/C=N/n2c(COc3ccccc3Cl)n[nH]c2=S)cc1` showed an IC50 of 71 µg/mL (≈ 166 µM).

Take `Cc1ccc(OCc2n[nH]c(=S)n2/N=C/c2c[nH]nc2-c2ccc(F)cc2)cc1`: the IC50 with HepG2 [1] was found to be 45 µg/mL (≈ 110 µM).

For `S=c1[nH]nc(COc2ccccc2)n1/N=C/c1c[nH]nc1-c1ccc(Cl)cc1`, the half-maximal inhibitory concentration (IC50) in the test on HepG2 [1] stood at 18 µg/mL (≈ 43.8 µM).

Consider `Cc1ccc(OCc2nn(CN(c3ccccc3)c3ccccc3)c(=S)n2/N=C/c2c[nH]nc2-c2ccc(F)cc2)cc1`, for which the IC50 with HepG2 [1] worked out at 90 µg/mL (≈ 153 µM).

The molecule `CCc1n[nH]cc1/C=N/n1c(COc2ccc(C)cc2)n[nH]c1=S` returned a concentration for half-maximal inhibition (IC50) in the test on HepG2 [1] of over 100 µg/mL.

`Cc1ccc(OCc2nn(CN3CCOCC3)c(=S)n2/N=C/c2c[nH]nc2-c2ccc(Cl)cc2)cc1` had a half-maximal inhibitory concentration (IC50) with HepG2 [1] of 54 µg/mL (≈ 103 µM).

In the test with HepG2 [1], `Fc1ccc(-c2n[nH]cc2/C=N/n2c(COc3ccccc3)n[nH]c2=S)cc1` displayed an IC50 of 71 µg/mL (≈ 180 µM).

`Cc1ccccc1OCc1n[nH]c(=S)n1/N=C/c1c[nH]nc1-c1ccc(Cl)cc1` yielded an IC50 in the test with HepG2 [1] of 44 µg/mL (≈ 104 µM).

For the molecule `Cc1ccc(OCc2nn(CN3CCOCC3)c(=S)n2/N=C/c2c[nH]nc2-c2ccc(F)cc2)cc1`, in the test on HepG2 [1], the 50% inhibitory concentration (IC50) was found to be 34 µg/mL (≈ 67 µM).

In the test on HepG2 [1], `Cc1ccccc1OCc1nn(CN2CCOCC2)c(=S)n1/N=C/c1c[nH]nc1-c1ccc(Cl)cc1` yielded an IC50 of 54 µg/mL (≈ 103 µM).

In turn, `Cc1ccc(OCc2n[nH]c(=S)n2/N=C/c2c[nH]nc2-c2ccc(Cl)cc2)cc1` came in with a half-maximal inhibitory concentration (IC50) with HepG2 [1] of 28 µg/mL (≈ 65.9 µM).

On to `COc1cccc2c1C(=O)c1c(O)c3c(c(O)c1C2=O)C[C@@](O)(C(=O)CO)C[C@@H]3O[C@H]1C[C@H](N)[C@H](O)[C@H](C)O1` [DOXORUBICIN], for which the viability at 0.1 µg/mL with HepG2 [2] was determined as 90%. In addition, the viability at 100 µg/mL with HepG2 [3] was found to be 35.9%. The viability at 1 µg/mL with HepG2 [4] worked out at 74.2%. In addition, the concentration for half-maximal inhibition (IC50) in the test on HepG2 [1] is 17 µg/mL (≈ 31.3 µM). In the test on HepG2 [5], the viability at 10 µg/mL worked out at 51.2%.
